# Measured values: PubChem BioAssay (NCI)
# Where “and” joins values, the source holds several entries; their conditions need not be identical. Identical values can stand only once.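 Cultured in 96-well plates, cells were exposed to test compound for 48 hours across five concentrations. The concentration for 50% growth inhibition is given as GI50. TGI denotes the concentration required for complete inhibition of growth.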 Where a SMILES comes first, the peptide text is derived from it. [ ]: non-standard residue; d: D form. The star is where a group is joined. ξ: configuration not given here. X16 = COC1=CC(=O)N(C(=O)C(O*)C(C)C)C1Cc1ccccc1; ξNMe2Val = CC(C)C(C(=O)*)N(C)C; NMeV = CN[CH](C(=O)O)C(C)C
# Experiments:
# Assay in all cases: NCI tumour cell line growth inhibition, 48 h
# SF-268 CNS = system: SF-268 CNS
# EKVX NSCLC = system: EKVX NSCLC
# SK-OV-3 ovarian = system: SK-OV-3 ovarian
# NCI-H23 lung = system: NCI-H23 lung
# SN12C renal = system: SN12C renal
# MALME-3M melanoma = system: MALME-3M melanoma
# HCC-2998 colon = system: HCC-2998 colon
# CAKI-1 renal = system: CAKI-1 renal
# A498 renal = system: A498 renal
# MDA-MB-435 = system: MDA-MB-435
# P388/ADR leukemia = system: P388/ADR leukemia
# NCI-H226 lung = system: NCI-H226 lung
# SNB-75 CNS = system: SNB-75 CNS
# HOP-62 NSCLC = system: HOP-62 NSCLC
# OVCAR-4 ovarian = system: OVCAR-4 ovarian
# NCI-H522 lung = system: NCI-H522 lung
# UO-31 renal = system: UO-31 renal
# HS 578T breast = system: HS 578T breast
# LOX IMVI melanoma = system: LOX IMVI melanoma
# HL-60(TB) leukemia = system: HL-60(TB) leukemia
# XF 498 CNS = system: XF 498 CNS
# SF-295 CNS = system: SF-295 CNS
# NCI/ADR-RES ovarian = system: NCI/ADR-RES ovarian
# SF-539 CNS = system: SF-539 CNS
# RPMI-8226 leukemia = system: RPMI-8226 leukemia
# HOP-18 NSCLC = system: HOP-18 NSCLC
# HCT-15 colon = system: HCT-15 colon
# KM12 colon = system: KM12 colon
# SK-MEL-2 melanoma = system: SK-MEL-2 melanoma
structure (smiles),measurement,setting,value
COC1=CC(=O)N(C(=O)C(OC(=O)C2CCCN2C(=O)C2CCCN2C(=O)C(C(C)C)N(C)C(=O)C(NC(=O)C(C(C)C)N(C)C)C(C)C)C(C)C)C1Cc1ccccc1 (stereo not given) (ξNMe2Val-V[NMeV]PP-X16; configuration not given here),TGI,SF-268 CNS,310 nM
same,TGI,EKVX NSCLC,3950 nM
same,GI50,SK-OV-3 ovarian,4.2 nM
same,GI50,NCI-H23 lung,< 0.4 nM
same,TGI,NCI-H23 lung,14.5 nM
same,GI50,SN12C renal,< 0.4 nM
same,GI50,MALME-3M melanoma,< 0.4 nM
same,TGI,MALME-3M melanoma,> 4000 nM
same,GI50,HCC-2998 colon,< 0.4 nM
same,GI50,CAKI-1 renal,< 0.4 nM
same,TGI,CAKI-1 renal,> 4000 nM
same,GI50,A498 renal,6.43 nM
same,TGI,A498 renal,165 nM
same,TGI,MDA-MB-435,0.576 nM
same,TGI,P388/ADR leukemia,556 nM
same,GI50,NCI-H226 lung,0.406 nM
same,TGI,NCI-H226 lung,1540 nM
same,GI50,SNB-75 CNS,< 0.4 nM
same,GI50,HOP-62 NSCLC,2.41 nM
same,TGI,HOP-62 NSCLC,> 4000 nM
same,GI50,OVCAR-4 ovarian,663 nM
same,TGI,OVCAR-4 ovarian,> 4000 nM
same,TGI,NCI-H522 lung,1.82 nM
same,GI50,UO-31 renal,> 4000 nM
same,TGI,UO-31 renal,> 4000 nM
same,TGI,HS 578T breast,0.903 nM
same,GI50,LOX IMVI melanoma,< 0.4 nM
same,TGI,LOX IMVI melanoma,> 4000 nM
same,GI50,HL-60(TB) leukemia,< 0.4 nM
same,TGI,HL-60(TB) leukemia,1.23 nM and < 0.4 nM
same,GI50,XF 498 CNS,< 0.4 nM
same,GI50,SF-295 CNS,< 0.4 nM
same,TGI,SF-295 CNS,7.4 nM and 4.36 nM
same,TGI,NCI/ADR-RES ovarian,256 nM
same,GI50,SF-539 CNS,< 0.4 nM
same,TGI,SF-539 CNS,5.16 nM and 48.1 nM
same,GI50,RPMI-8226 leukemia,< 0.4 nM
same,TGI,RPMI-8226 leukemia,> 4000 nM
same,GI50,HOP-18 NSCLC,> 4000 nM
same,TGI,HOP-18 NSCLC,> 4000 nM
same,GI50,HCT-15 colon,< 0.4 nM
same,TGI,HCT-15 colon,431 nM
same,GI50,KM12 colon,< 0.4 nM
same,TGI,KM12 colon,> 4000 nM
same,GI50,SK-MEL-2 melanoma,< 0.4 nM
